In PubChem BioAssay (NCI):
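A five-concentration, 48-hour dose response in 96-well plates underlies each endpoint, interpolated linearly between surrounding concentrations. At the GI50, growth is halved. TGI: total growth inhibition.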

Tests used:
Test in all cases: NCI tumour cell line growth inhibition, 48 h
[1] = test system: SNB-75 CNS
[2] = test system: U251 CNS
[3] = test system: HOP-62 NSCLC
[4] = test system: CAKI-1 renal
[5] = test system: HCT-116 colon
[6] = test system: SK-MEL-2 melanoma
[7] = test system: HOP-92 NSCLC
[8] = test system: SF-539 CNS

SMILES	GI50 [1] [µM]	TGI [1] [µM]	GI50 [2] [µM]	TGI [2] [µM]	GI50 [3] [µM]	TGI [3] [µM]	GI50 [4] [µM]	TGI [4] [µM]	GI50 [5] [µM]	GI50 [6] [µM]	TGI [6] [µM]	GI50 [7] [µM]	TGI [7] [µM]	TGI [8] [µM]	TGI [5] [µM]	GI50 [8] [µM]
CCOC(=O)CNC(=O)C(CSC(=O)N(C)O)NC(=O)CCC(N)C(=O)O (stereo not given)	> 2000	> 2000	> 2000	> 2000	> 2000	> 2000	> 2000	> 2000	> 2000	> 2000	> 2000	> 2000	> 2000			
NNC(=S)N/N=C/C(Cl)=C(\Cl)C(=O)O		> 100		> 100				> 100			> 100		> 100	> 100	> 100	
COC(=O)C(=O)C1CCCCC(C2=NC3NN=C(N)N3C2=O)C1=O (stereo not given)		> 100		> 100		> 100		> 100			> 100		> 100	> 100	> 100	
NC(=O)CCC(NC(=O)C(F)(F)F)C(=O)O (stereo not given)		> 100		> 100		> 100		> 100			> 100		> 100	> 100	> 100	
CC12C(=O)N(CCN)C(=O)C1C1c3ccccc3C2c2ccccc21 (stereo not given)		> 100		> 100		> 100		> 100			> 100		98.4	> 100	> 100	
C[C@]12CCCC(=O)C1C[C@H](C(=O)O)CC2 (stereo not given in full)		> 100		> 100		> 100		> 100			> 100		> 100	> 100	> 100	
Cc1cccc(N=C2NC(=O)C(CC(=O)Nc3ccc(Cl)cc3C)S2)c1 (stereo not given)		> 100				> 100		> 100			> 100			> 100		
CCc1oc2ccc(OC)c3c2c1C=CC=C3		> 100		> 100		> 100					> 100			> 100		
Cc1cc(=O)[nH]c(CNC(=O)Cc2ccccc2)n1		> 100				> 100		> 100			> 100		> 100	> 100		
CC12OC3CC(O1)C1(C=O)C4CCC5(C)C(c6ccc(=O)oc6)CCC5(O)C4CCC1(C3)O2 (stereo not given)		1.03		1.24		0.348		0.729			0.79		1.71	0.228	0.399	
CCC[CH2][Sn]1([CH2]CCC)[O]C(=O)c2cc(C)ccc2[O]1	0.291	1.2	0.462	1.54			0.169	0.785	1.12	0.303	0.808	0.327	1.65	1.66	2.33	0.521
O=[N+]([O-])c1cc(/C=N/NS(=O)(=O)c2ccc(F)cc2)c(O)c([N+](=O)[O-])c1		76.9		44.7		> 100		> 100			> 100		> 100	43.9	> 100	
C[N+]1=c2c3cccc4cccc(c(=O)n2CCC1)c43		78.7		> 100		86.2		84			35.3		93.3	> 100	43.6	
CP(C)C.[Ag][I]		46.5		> 100		> 100		> 100			> 100		> 100	> 100	> 100	
CCOC(=O)N1CCC(=O)C[C@@H]1C/C=C/P1(=O)O[C@H](c2ccccc2)C(C)N1C(C)C (stereo not given in full)		> 100		> 100				> 100			> 100		> 100	> 100	> 100	
N#Cc1ccccc1Nc1ccccc1S						> 100		> 100			> 100		80.3	35.8		
COC(=O)C1=Cc2c(OC)cc(OC)c(OC)c2[C@H](c2cc(OC)c(OC)cc2OC)C1C(=O)OC (stereo not given in full)		> 100		> 100		> 100		> 100					> 100	> 100	> 100	
O=C1CCC(=O)C(C(=O)CCC(=O)Nc2cccc(Cl)c2)C1 (stereo not given)		> 100		> 100		> 100		> 100					> 100	> 100	> 100	
Cc1cc2c(cc1C)[n+]([O-])c(-c1c(Cl)cccc1Cl)c(N)[n+]2[O-]		> 100		> 100		96.8		95.1			> 100		> 100	> 100		
CC(C)NC(=O)O/N=C1\CCC2[C@@H]3CC=C4C[C@@H](OC(=O)NC(C)C)CC[C@]4(C)C3CC[C@]12C (stereo not given in full)		3.74		2.8		> 34		4.29			2.9		5.02		4.94	
CCOC(=O)C1(Cc2ccc3ccccc3c2)CCCCCN1 (stereo not given)		30.2		> 100		> 100		> 100					55.4			
CCOc1ccc(NC(=O)CCC(=O)NN)cc1		> 100		> 100		> 100		> 100			> 100		> 100			
